Source: patent US20180250224A1, “Ophthalmic Drug Compositions” (Oxular Limited, priority 2014, published 2018)

Experiment: Drug elution in PBS over 0-7 days (HPLC of supernatant)
Format: physicochemical
Conditions: 1.2 ml PBS, 37 degrees centigrade, 250 rpm
Procedure: The microspheres of Example 7 and the elongated solid composition of Example 8 were tested for drug release. Samples of the Everolimus containing microspheres, averaging 4.0 mg, were placed in Eppendorf tubes with 1.2 ml of phosphate buffered saline (PBS) and suspended with agitation. Samples of the elongated solid composition containing Everolimus of 12 mm length, averaging 0.51 mg were placed in Eppendorf tubes with 1.2 ml of phosphate buffered saline (PBS) and suspended with agitation. For comparison, samples of the drug used to produce the microspheres, averaging 4.1 mg, were also placed in Eppendorf tubes with 1.2 ml of PBS and suspended with agitation. The tubes were incubated at 37 degrees centigrade with mixing at 250 rpm. At time intervals of 0, 1, 2, 4 and 7 days a tube containing sample was centrifuged and the supernatant removed for drug analysis. For each time point, 10 microliters of supernatant was placed into 75:25 acetonitrile and water solvent to solubilize the drug and the resultant drug content was analyzed by HPLC. The HPLC method used a C18 reverse phase column and UV detection and was calibrated to a standard curve of drug. […] In contrast, the Everolimus containing microspheres released drug at a slower rate, with 0.06% of the drug released at 7 days. Similar to the microspheres, the elongated solid composition containing Everolimus released drug at a slow rate, with 0.04% of the drug released at 7 days.
The microspheres of Example 11 and the elongated solid composition of Example 12 were tested for drug release. […] For each time point, 10 microliters of supernatant was placed into 75:25 acetonitrile and water solvent to solubilize the drug and the resultant drug content was analyzed by HPLC. […]
The elongated solid composition of Example 15 was tested for drug release. […] For each time point, 10 microliters of supernatant was placed into 50:50 acetonitrile and methanol solvent to solubilize the drug and the resultant drug content was analyzed by HPLC. […]

Row | drug released at 7 days (7 days) [%] | drug released initially at 0 days (initial burst release) (0 days) [%] | drug released, average at subsequent time points (1, 2, 4 and 7 days) [%] | SMILES
1 | 0.45 |  |  | CO[C@H]1C[C@@H]2CC[C@@H](C)[C@@](O)(O2)C(=O)C(=O)N2CCCC[C@H]2C(=O)O[C@H]([C@H](C)C[C@@H]2CC[C@@H](OCCO)[C@H](OC)C2)CC(=O)[C@H](C)/C=C(\C)[C@@H](O)[C@@H](OC)C(=O)[C@H](C)C[C@H](C)/C=C/C=C/C=C/1C [Everolimus]
2 |  | 5.3 | 0.9 | CC1(C)O[C@@H]2C[C@H]3[C@@H]4C[C@H](F)C5=CC(=O)C=C[C@]5(C)[C@@]4(F)[C@@H](O)C[C@]3(C)[C@]2(C(=O)CO)O1 [fluocinolone, fluocinolone acetonide]
